Source: PubChem BioAssay AID248 (DTP/NCI, 2004)
Several values for one entry are separate records, joined by “and”; a condition that tells them apart may be missing. Identical values can stand only once. Toxic doses and inconclusive results are not listed.

Test system: L1210 leukemia ip in BDF1 mice, survival T/C
Assay: NCI In Vivo Anticancer Drug Screen. Data for tumor model L1210 Leukemia (intraperitoneal) in B6D2F1 (BDF1) mice
Conditions: endpoint: mean survival time, higher = longer survival
In short: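 In this screen, tumor-bearing mice given compound are compared to those given vehicle, and their survival values are reported as a treated-to-control quotient.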

[1] = dose: 100.0 mg/kg/injection, schedule: Q01DX009 (ip), vehicle: Klucel (hydroxypropylcellulose) (HPC)
[2] = dose: 200.0 mg/kg/injection, schedule: Q01DX009 (ip), vehicle: Klucel (hydroxypropylcellulose) (HPC)
[3] = dose: 400.0 mg/kg/injection, schedule: Q01DX009 (ip), vehicle: Klucel (hydroxypropylcellulose) (HPC)
[4] = dose: 100.0 mg/kg/injection, schedule: Q04DX002 (ip), vehicle: saline with Tween-80
[5] = dose: 100.0 mg/kg/injection, schedule: Q04DX003 (ip), vehicle: Klucel (hydroxypropylcellulose) (HPC)
[6] = dose: 200.0 mg/kg/injection, schedule: Q04DX003 (ip), vehicle: Klucel (hydroxypropylcellulose) (HPC)
[7] = dose: 400.0 mg/kg/injection, schedule: Q04DX003 (ip), vehicle: Klucel (hydroxypropylcellulose) (HPC)
[8] = dose: 50.0 mg/kg/injection, schedule: Q01DX009 (ip), vehicle: saline
[9] = dose: 100.0 mg/kg/injection, schedule: Q01DX009 (ip), vehicle: saline
[10] = dose: 200.0 mg/kg/injection, schedule: Q01DX009 (ip), vehicle: saline
[11] = dose: 100.0 mg/kg/injection, schedule: Q01DX009 (ip), vehicle: saline with Tween-80
[12] = dose: 200.0 mg/kg/injection, schedule: Q01DX009 (ip), vehicle: saline with Tween-80

Cc1ccc(CN2C(=O)C=CC2=O)cc1
T/C (dose: 12.5 mg/kg/injection, schedule: Q04DX002 (ip), vehicle: Klucel (hydroxypropylcellulose) (HPC)): 102 % of control
T/C (dose: 25.0 mg/kg/injection, schedule: Q04DX002 (ip), vehicle: Klucel (hydroxypropylcellulose) (HPC)): 102 % of control

O=c1ccc2nc3cc(Cl)ccc3sc-2c1
T/C [1]: 95 % of control
T/C [2]: 96 % of control
T/C [3]: 87 % of control

C=CCCCCCCCCC(=O)NC(C)C(C)(C)C (configuration not stated)
T/C (dose: 100.0 mg/kg/injection, schedule: Q04DX003 (ip), vehicle: saline with Tween-80): 87 % of control
T/C (dose: 200.0 mg/kg/injection, schedule: Q04DX003 (ip), vehicle: saline with Tween-80): 98 % of control

CCCCN1C(=O)C(c2ccccc2)C2(CCN(C)CC2)C1=O (configuration not stated)
T/C (dose: 25.0 mg/kg/injection, schedule: Q01DX001 (ip), vehicle: Klucel (hydroxypropylcellulose) (HPC)): 93 % of control
T/C (dose: 50.0 mg/kg/injection, schedule: Q01DX001 (ip), vehicle: Klucel (hydroxypropylcellulose) (HPC)): 91 % of control
T/C (dose: 100.0 mg/kg/injection, schedule: Q01DX001 (ip), vehicle: Klucel (hydroxypropylcellulose) (HPC)): 97 % of control and 98 % of control

CCCSCCN=C(N)C(N)=NCCSCCC
T/C (dose: 25.0 mg/kg/injection, schedule: Q04DX002 (ip), vehicle: saline with Tween-80): 88 % of control
T/C (dose: 50.0 mg/kg/injection, schedule: Q04DX002 (ip), vehicle: saline with Tween-80): 95 % of control
T/C [4]: 97 % of control and 101 % of control

O=C(NCCCl)Nc1cccc2c(O)cccc12
T/C [5]: 98 % of control
T/C [6]: 96 % of control
T/C [7]: 107 % of control

CCCC(O)S(=O)(=O)O (configuration not stated)
T/C [8]: 103 % of control
T/C [9]: 94 % of control
T/C (dose: 100.0 mg/kg/injection, schedule: Q04DX003 (ip), vehicle: acetone): 102 % of control
T/C [10]: 97 % of control
T/C (dose: 200.0 mg/kg/injection, schedule: Q04DX003 (ip), vehicle: acetone): 99 % of control
T/C (dose: 400.0 mg/kg/injection, schedule: Q04DX003 (ip), vehicle: acetone): 93 % of control

CN(C)c1n[nH]c(N=[N+]=[N-])n1
T/C [4]: 104 % of control
T/C (dose: 200.0 mg/kg/injection, schedule: Q04DX002 (ip), vehicle: saline with Tween-80): 90 % of control
T/C (dose: 400.0 mg/kg/injection, schedule: Q04DX002 (ip), vehicle: saline with Tween-80): 104 % of control

Nc1ncnc2c1c(C(=O)NO)cn2C1OC(CO)C(O)C1O (configuration not stated)
T/C (dose: 6.25 mg/kg/injection, schedule: Q01DX009 (ip), vehicle: saline): 153 % of control
T/C (dose: 12.5 mg/kg/injection, schedule: Q01DX009 (ip), vehicle: saline): 156 % of control and 171 % of control
T/C (dose: 25.0 mg/kg/injection, schedule: Q01DX005 (ip), vehicle: saline): 108 % of control

O=C1NC(c2cccc3ccccc23)Nc2ccc(Cl)cc21 (configuration not stated)
T/C (dose: 50.0 mg/kg/injection, schedule: Q01DX009 (ip), vehicle: Klucel (hydroxypropylcellulose) (HPC)): 108 % of control and 109 % of control
T/C (dose: 150.0 mg/kg/injection, schedule: Q01DX009 (ip), vehicle: Klucel (hydroxypropylcellulose) (HPC)): 116 % of control

N=[N+]=CC(=O)CC(N)C(=O)O (configuration not stated)
T/C (dose: 50.0 mg/kg/injection, schedule: Q01DX001 (ip), vehicle: saline): 94 % of control
T/C [8]: 104 % of control
T/C (dose: 100.0 mg/kg/injection, schedule: Q01DX001 (ip), vehicle: saline): 94 % of control
T/C [9]: 107 % of control
T/C (dose: 128.0 mg/kg/injection, schedule: Q03HX024 (ip), vehicle: saline): 117 % of control
T/C (dose: 200.0 mg/kg/injection, schedule: Q01DX001 (ip), vehicle: saline): 99 % of control
T/C [10]: 113 % of control
T/C (dose: 256.0 mg/kg/injection, schedule: Q04DX003 (ip), vehicle: saline): 102 % of control
T/C (dose: 400.0 mg/kg/injection, schedule: Q01DX001 (ip), vehicle: saline): 96 % of control
T/C (dose: 512.0 mg/kg/injection, schedule: Q04DX003 (ip), vehicle: saline): 105 % of control
T/C (dose: 1024.0 mg/kg/injection, schedule: Q04DX003 (ip), vehicle: saline): 108 % of control

CC(=O)N(C)c1ccc(S(=O)(=O)Cl)cc1
T/C [11]: 101 % of control
T/C [12]: 95 % of control

CCOC(=O)C(C#N)(CC)C1=CCCCC1 (configuration not stated)
T/C [1]: 106 % of control
T/C [5]: 97 % of control
T/C [2]: 93 % of control
T/C [6]: 97 % of control
T/C [3]: 97 % of control
T/C [7]: 102 % of control

Fc1ccc(C(c2ccc(F)cc2)C(Cl)Cl)cc1
T/C [11]: 95 % of control
T/C [12]: 97 % of control
T/C (dose: 400.0 mg/kg/injection, schedule: Q01DX009 (ip), vehicle: saline with Tween-80): 93 % of control
